The values below come from ChEMBL document CHEMBL3988442, “University of Dundee, Small-Polar-MMV Screening Library” (2021).

A short description of assay [1]: microbe, parasite or virus in culture. As to conditions: Mycobacterium tuberculosis, 96 h, read-out: pIC50 (converted).
A short description of assay [2]: microbe, parasite or virus in culture. The following applies: Mycobacterium tuberculosis, 72 h, read-out: pIC50 (converted).

Bounds are passed on as bounds.

Take `O=C(Cn1ccc(C(F)(F)F)n1)Nc1ccccn1`: the values for the IC50 in assay [1] and in assay [2] were over 501 µM and 224 µM, respectively.

For `N#Cc1ccc(S(=O)(=O)NCCN)cc1C(F)(F)F`, the IC50 was 223 µM in assay [1] and 160 µM in assay [2].

For the molecule `O=C(CC1COCCN1Cc1ccon1)c1cccs1` (stereo not drawn), the IC50 in assay [1] was over 501 µM; in assay [2], 172 µM.

Turning to `N#Cc1ccc(OCCCN2CCNC(=O)C2)cc1`, the values for the IC50 in assay [1] and in assay [2] were 290 µM and 233 µM, respectively.

On to `NCCc1nc(C2CC2)cs1`, for which the IC50 in assay [1] was 103 µM; in assay [2], 91.5 µM.

`Cc1cccc(NC(=O)CN(C)Cc2nnsc2Cl)n1`: the IC50 in assay [1] is over 501 µM; in assay [2], 246 µM.

`CCOCC(=O)NC(C)c1c(F)cccc1OC` (stereo not drawn): the IC50 in assay [1] was 277 µM; in assay [2] it was 178 µM.

Consider `Cc1cc(C2CCC2)nc(N2CCNC(=O)C2)n1`, for which the IC50 in assay [1] is 44.3 µM; in assay [2], 119 µM.

For `NCCNS(=O)(=O)c1ccc(F)c(Br)c1`, the IC50 in assay [1] and in assay [2] was over 501 µM throughout.

Turning to `CCC(N)C(=O)N1CCN(c2ccc(F)cc2Cl)CC1` (stereo not drawn), the results for the IC50 in assay [1] and in assay [2] were 266 µM and 322 µM, respectively.

For the molecule `CC1CCC(NC(=O)Cn2cnc(C#N)n2)CC1` (stereo not drawn), the figures for the IC50 in assay [1] and in assay [2] were 98.1 µM and 101 µM, respectively.

As for `Cc1cc(-c2noc(C(C)N)n2)ccc1F` (stereo not drawn), the values for the IC50 in assay [1] and in assay [2] were over 501 µM and 457 µM, respectively.

With `Cc1cnc(C(=O)NCCSCc2ccco2)cn1`, the IC50 in assay [1] and in assay [2] was over 501 µM each time.

For the molecule `CN(C)C(CN)c1cccc(F)c1` (stereo not drawn), the IC50 in assay [1] and in assay [2] was over 501 µM each time.

As to `Cc1ccc(NCc2cccc(O)c2)cc1S(C)(=O)=O`, the IC50 was 333 µM in assay [1] and 89.7 µM in assay [2].

With `O=C(c1cc(C2CC2)on1)N1CCCN(C2CC2)CC1`, the IC50 in assay [1] and in assay [2] was over 501 µM in each case.

On to `CC1Cc2ccccc2N1CCN` (stereo not drawn), for which the figures for the IC50 in assay [1] and in assay [2] were 204 µM and 172 µM, respectively.

For `NCc1cccc(C(=O)NCc2ccco2)c1`, the IC50 in assay [1] and in assay [2] was over 501 µM each time.

Regarding `COC(=O)N1CCC(Nc2nnc(C(F)(F)F)s2)CC1`, the results for the IC50 in assay [1] and in assay [2] were 230 µM and 160 µM, respectively.

Turning to `C=C(C)CCOC(=O)c1ccc(CS(C)(=O)=O)cc1`, the IC50 in assay [1] was 258 µM; in assay [2] it was 275 µM.

For the molecule `CCNc1ncc(C(=O)N2CCCCC2)s1`, the IC50 was over 501 µM in assay [1] and 377 µM in assay [2].

As to `Cc1c(CN2CCSCC2)cccc1NS(C)(=O)=O`, the IC50 in assay [1] and in assay [2] was over 501 µM each time.

On to `Cc1ccc(-c2noc(C(C)N)n2)cc1F` (stereo not drawn), for which the IC50 in assay [1] is 327 µM; in assay [2], 368 µM.

On to `CC(Nc1ccc(OC(F)F)cn1)c1ccncc1` (stereo not drawn), for which the values for the IC50 in assay [1] and in assay [2] were 246 µM and 195 µM, respectively.

`COc1ccc(-c2noc(C3(O)CCCC3)n2)cn1`: the IC50 in assay [1] is 104 µM; in assay [2], 282 µM.

For the molecule `O=C1CCCCN1Cn1cc(I)cn1`, the IC50 in assay [1] was 318 µM; in assay [2], 251 µM.

As to `CCc1cccc2c1N(C(=O)CNC)CC2`, the IC50 in assay [1] is over 501 µM; in assay [2], 367 µM.

In the case of `COc1ccc(CCSc2nnc[nH]2)cc1`, the IC50 in assay [1] is 111 µM; in assay [2], 142 µM.

For `N#Cc1ccc(S(=O)(=O)NCCCN)cc1C(F)(F)F`, the results for the IC50 in assay [1] and in assay [2] were over 501 µM and 205 µM, respectively.

In the case of `Cc1ncc(CN(C)CC(O)COCc2ccco2)s1` (stereo not drawn), the IC50 in assay [1] and in assay [2] was over 501 µM each time.

As for `NC1CCCN(Cc2ccccc2)C1` (stereo not drawn), the IC50 was over 501 µM in assay [1] and 262 µM in assay [2].

With `Cc1ccc(F)c(CN2CC[C@H](N)C2)c1`, the IC50 in assay [1] was 225 µM; in assay [2], 213 µM.

`CC(C)c1cc(C(=O)N[C@@H]2CCOC[C@H]2O)cs1`: the IC50 in assay [1] and in assay [2] was over 501 µM in each case.

On to `CCOCC(=O)NCC1(O)CCCc2ccccc21` (stereo not drawn), for which the results for the IC50 in assay [1] and in assay [2] were 231 µM and 83.9 µM, respectively.

On to `CNC(=O)NC(=O)CCN1CCN(S(C)(=O)=O)CC1`, for which the IC50 in assay [1] was over 501 µM; in assay [2], 245 µM.

Consider `CS(=O)(=O)NCC1CCCN(c2ncc(Cl)cc2F)C1` (stereo not drawn), for which the IC50 in assay [1] is over 501 µM; in assay [2] it was 159 µM.

With `CCOc1ccc(Cn2nc(COC)oc2=O)nc1`, the figures for the IC50 in assay [1] and in assay [2] were 19.1 µM and 246 µM, respectively.

`CC1CN(CCC(=O)NC(N)=O)CCO1` (stereo not drawn): the IC50 in assay [1] was 286 µM; in assay [2], 80.3 µM.

As for `CNCC(=O)NCCc1c(OC)ccc2ccccc12`, the IC50 in assay [1] is over 501 µM; in assay [2], 411 µM.

In the case of `O=C(NCCOc1ncccc1Cl)c1cc(Cl)c[nH]1`, the IC50 in assay [1] is 287 µM; in assay [2], 188 µM.

On to `Cc1nc(Cn2cc(S(=O)(=O)N(C)C)ccc2=O)cs1`, for which the values for the IC50 in assay [1] and in assay [2] were over 501 µM and 326 µM, respectively.

Take `COc1cc(NC(=O)NCc2nncn2C)ccc1Br`: the IC50 in assay [1] was over 501 µM; in assay [2], 218 µM.

As to `NCCCc1ccccn1`, the IC50 in assay [1] and in assay [2] was over 501 µM in each case.

Regarding `O=C(Cn1cc(Br)cn1)Nc1ccc2c(c1)OCCO2`, the IC50 in assay [1] is 247 µM; in assay [2], 220 µM.

For `CCCNc1nnc(SCC(C)(C)O)s1`, the results for the IC50 in assay [1] and in assay [2] were 159 µM and 297 µM, respectively.

Turning to `Cc1ccc(S(=O)(=O)NCCN)cc1C(F)(F)F`, the IC50 in assay [1] was over 501 µM; in assay [2], 102 µM.

For `O=C(NC1CCCOc2ccccc21)c1ccncc1` (stereo not drawn), the IC50 in assay [1] and in assay [2] was over 501 µM throughout.

For `CN(C)S(=O)(=O)N1CCCC1c1ccccc1Br` (stereo not drawn), the IC50 is 273 µM in assay [1] and 206 µM in assay [2].

Consider `COc1cccc(C2=NN=C(NC3CC3)SC2)c1`, for which the IC50 in assay [1] is 111 µM; in assay [2] it was 97.4 µM.

For `COCCOC1CCN(c2cccc(C)n2)CC1`, the IC50 in assay [1] was 366 µM; in assay [2] it was 245 µM.

For `CN(Cc1c(F)cccc1Cl)S(=O)(=O)N1CCOCC1`, the IC50 was 269 µM in assay [1] and 270 µM in assay [2].

On to `CN(Cc1ccco1)CC(O)COCc1cccs1` (stereo not drawn), for which the IC50 in assay [1] is 188 µM; in assay [2], 235 µM.

For `CC(C)N(C)S(=O)(=O)N1CCc2sccc2C1C` (stereo not drawn), the IC50 in assay [1] is 207 µM; in assay [2], 150 µM.

As to `COc1cccc(N2CCC(N)CC2)c1`, the values for the IC50 in assay [1] and in assay [2] were 213 µM and 426 µM, respectively.

With `O=C(NCCC(O)C(F)(F)F)c1c(O)cc(F)cc1F` (stereo not drawn), the IC50 in assay [1] is 244 µM; in assay [2], 290 µM.

Consider `NCCCOC1CCN(C(=O)c2ccc(Br)o2)CC1`, for which the IC50 in assay [1] was over 501 µM; in assay [2], 76.7 µM.

`CC(C)(O)CSc1nnc(NCc2ccco2)s1`: the IC50 in assay [1] is 55.2 µM; in assay [2], 118 µM.

In the case of `Cc1csc(N2CCCN(C(=O)c3cnsn3)CC2)n1`, the figures for the IC50 in assay [1] and in assay [2] were over 501 µM and 284 µM, respectively.

On to `C=C(C)CN1C(=O)Nc2ccccc2S1(=O)=O`, for which the IC50 in assay [1] was over 501 µM; in assay [2], 349 µM.

Take `COc1ccc(CCN)c(O)c1`: the values for the IC50 in assay [1] and in assay [2] were 435 µM and 153 µM, respectively.

`CC(C)c1ccccc1OCC(O)CN(C)CCO` (stereo not drawn): the results for the IC50 in assay [1] and in assay [2] were 257 µM and 123 µM, respectively.

Regarding `O=C(COc1ccccc1Cl)NCC(=O)c1ccco1`, the figures for the IC50 in assay [1] and in assay [2] were over 501 µM and 342 µM, respectively.

As to `CCN(C1CC1)S(=O)(=O)c1ccc2c(c1)OCCO2`, the IC50 in assay [1] is over 501 µM; in assay [2], 162 µM.

Turning to `Cn1c(=O)c2c(nc(Cl)n2CCCC#N)n(C)c1=O`, the IC50 in assay [1] and in assay [2] was over 501 µM throughout.

Take `CCc1ccc(CN2CCN(C(=O)N(C)C)CC2)o1`: the IC50 was over 501 µM in assay [1] and 206 µM in assay [2].

Turning to `c1ccc(CN2CCCN(c3ccccn3)CC2)nc1`, the IC50 in assay [1] was 236 µM; in assay [2], 196 µM.

Take `COCCNc1nc(-c2ccc(S(N)(=O)=O)cc2)cs1`: the IC50 was over 501 µM in assay [1] and 207 µM in assay [2].

With `NC(=O)Nc1cccc(C(=O)Nc2ccc(Cl)cn2)c1`, the values for the IC50 in assay [1] and in assay [2] were 132 µM and 126 µM, respectively.

As to `CN(CCOc1ccc(Cl)cc1)C(=O)C(C)(C)CN`, the values for the IC50 in assay [1] and in assay [2] were 276 µM and 216 µM, respectively.

Consider `O=C(NCCn1cccc1)c1[nH]nc2c1CCCC2`, for which the figures for the IC50 in assay [1] and in assay [2] were over 501 µM and 248 µM, respectively.

With `CC(NS(=O)(=O)N(C)C1CCCCC1)c1ccccn1` (stereo not drawn), the IC50 is 159 µM in assay [1] and 75.6 µM in assay [2].

Take `Cc1cc(C(=O)N2CCC(C(N)=O)C2)cc(Cl)c1Br` (stereo not drawn): the figures for the IC50 in assay [1] and in assay [2] were 262 µM and 180 µM, respectively.

As to `CN(C)S(=O)(=O)c1ccc(COC(=O)C2CC2)o1`, the IC50 is 338 µM in assay [1] and over 501 µM in assay [2].

Take `CCC(C)(C)NC(=O)CNc1ccc2c(c1)OCCO2`: the IC50 in assay [1] is 75.9 µM; in assay [2], 95.2 µM.

As for `Cc1ccc(C(N)=O)cc1NCC(C)C`, the IC50 in assay [1] and in assay [2] was over 501 µM throughout.

Turning to `CN(Cc1ccc(N)nc1)c1ccc(C#N)cn1`, the IC50 in assay [1] and in assay [2] was over 501 µM throughout.

As to `N#CC1(C(=O)NCc2ccccc2F)CC1`, the IC50 in assay [1] and in assay [2] was over 501 µM each time.

Take `Cn1cc(CC(=O)Nc2ccc(I)cn2)cn1`: the IC50 in assay [1] is over 501 µM; in assay [2] it was 283 µM.

As to `Cc1nnc(SC[C@H](O)COCc2ccccc2)s1`, the IC50 in assay [1] is 133 µM; in assay [2], 209 µM.

As for `CN(C)c1cc(CN)c2ccccc2n1`, the results for the IC50 in assay [1] and in assay [2] were 132 µM and 97.3 µM, respectively.

For the molecule `O=C(c1cc(C2CC2)on1)N1CC(O)(C2CC2)C1`, the figures for the IC50 in assay [1] and in assay [2] were 44.5 µM and 47.3 µM, respectively.

As to `O=C(NCCn1cccc1)c1ccc(Cl)cn1`, the values for the IC50 in assay [1] and in assay [2] were 52.9 µM and 57.9 µM, respectively.

Consider `NS(=O)(=O)N1CCN(CC=Cc2ccc(F)cc2)CC1`, for which the IC50 in assay [1] is over 501 µM; in assay [2], 233 µM.

In the case of `NC1CCCN(S(=O)(=O)C=Cc2cccc(Cl)c2)C1` (stereo not drawn), the IC50 in assay [1] was 257 µM; in assay [2], 216 µM.
